Data on ten molecules can be found in PMC3091868, “A Novel Structural Framework for α1A/D-Adrenoceptor Selective Antagonists Identified Using Subtype Selective Pharmacophores” (PLoS ONE, 2011).

The target of assay [1] is T1, α1A-AR (Rattus norvegicus, UniProt P43140).
T1 construct: expressed in transfected cells; host or cells: COS-1
T1 sequence (P43140 1-466): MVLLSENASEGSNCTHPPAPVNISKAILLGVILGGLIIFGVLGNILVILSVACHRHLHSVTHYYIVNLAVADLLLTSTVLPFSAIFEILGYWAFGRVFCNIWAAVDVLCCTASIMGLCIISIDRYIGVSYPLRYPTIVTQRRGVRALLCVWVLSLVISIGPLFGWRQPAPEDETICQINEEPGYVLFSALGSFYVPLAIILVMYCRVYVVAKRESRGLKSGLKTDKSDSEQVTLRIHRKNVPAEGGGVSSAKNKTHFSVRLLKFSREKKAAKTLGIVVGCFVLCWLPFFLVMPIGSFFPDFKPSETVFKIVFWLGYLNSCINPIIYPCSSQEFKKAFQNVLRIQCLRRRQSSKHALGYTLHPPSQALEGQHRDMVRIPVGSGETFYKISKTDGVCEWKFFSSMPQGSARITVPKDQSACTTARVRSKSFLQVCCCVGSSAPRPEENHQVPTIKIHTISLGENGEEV
The experiment in a line: [3H]Prazosin competition/saturation binding on COS-1 membranes expressing α1A-AR. Particulars: for Ki: [3H]Prazosin 200 pM, COS-1 membranes. Set-up: species or system rodent. Here is the method:
(§1) COS-1 cells (American Type Culture Collection, Manassas, VA) were cultured in Dulbecco's modified Eagle's medium (DMEM) supplemented with 10% (v/v) heat inactivated fetal bovine serum (FBS), 100 µg ml^−1 penicillin and 100 µg ml^−1 streptomycin. Cells were maintained and passaged upon reaching confluence by standard cell culture techniques. pMT4 plasmids containing rodent α1-AR (a kind gift from Prof R Graham, Victor Chang Cardiac Research Institute, Australia) were used to transfect cells. Transient expression in COS-1 cells was accomplished using two techniques; the diethylaminoethane-dextran (DEAE-dextran) and Lipofectamine 2000 (Invitrogen, Carlsbad, CA, USA) methods. Briefly, the DEAE-dextran method involved washing of cells with phosphate buffered saline (PBS), followed by the addition of the DNA mixture (12–25 µg/4×10^6 cells) in DEAE-dextran (10 mg ml^−1) to cells at 60–80% confluency. Following a 3 h incubation, a PBS wash with 10% DMSO was used to shock the cells. Cells were harvested 72 h post transfection. For the Lipofectamine 2000 method, cells were incubated for 12 h with Opti-MEM (GIBCO BRL, Gaithersburg, MD, USA) containing Lipofectamine 2000.
(§2) Membranes were prepared as described previously. Briefly, COS-1 cells were transiently transfected using the DEAE-dextran method. […] Protein concentration was determined using Bradford reagent (Sigma, St Louis, MO, USA).
(§3) For all binding experiments, the reaction mixture was incubated for 1 h at room temperature, stopped by the addition of 4°C PBS and filtered with a Brandel cell harvester (Gaithersburg, MD, USA) on GF/C filters. Nonspecific binding was defined as binding in the presence of 100 µM phentolamine hydrochloride.
(§4) Nonlinear regression analysis of saturation and competition binding assay data was performed using the […] curve fitting program GraphPad Prism (San Diego, CA, USA). […] The competitive binding data for each ligand was tested for both one and two -site binding.

Assay [2] deals with T2, α1B-AR (Mesocricetus auratus, UniProt P18841).
T2 construct: expressed in transfected cells; host or cells: COS-1
T2 sequence (P18841 1-515): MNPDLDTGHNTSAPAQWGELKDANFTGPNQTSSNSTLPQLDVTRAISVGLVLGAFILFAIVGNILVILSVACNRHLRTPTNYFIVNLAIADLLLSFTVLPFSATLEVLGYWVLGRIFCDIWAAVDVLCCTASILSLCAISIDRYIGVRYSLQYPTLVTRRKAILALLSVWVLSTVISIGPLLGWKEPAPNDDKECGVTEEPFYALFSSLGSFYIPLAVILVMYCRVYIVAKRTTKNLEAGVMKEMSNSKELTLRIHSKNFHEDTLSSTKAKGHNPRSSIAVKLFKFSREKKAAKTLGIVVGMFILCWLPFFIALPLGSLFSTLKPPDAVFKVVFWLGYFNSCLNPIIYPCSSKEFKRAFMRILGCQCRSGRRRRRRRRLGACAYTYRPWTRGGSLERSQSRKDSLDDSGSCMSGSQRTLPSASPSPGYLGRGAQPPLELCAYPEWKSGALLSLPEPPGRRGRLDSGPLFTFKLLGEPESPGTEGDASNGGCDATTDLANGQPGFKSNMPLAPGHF
The experiment in a line: [3H]Prazosin competition/saturation binding on COS-1 membranes expressing α1B-AR. To be noted: [3H]Prazosin 200 pM, COS-1 membranes. Set-up: species or system rodent. Here is the method:
as §1, §2, §3, §4

For assay [3], the target named is T3, α1D-AR (Rattus norvegicus, UniProt P23944).
T3 construct: expressed in transfected cells; host or cells: COS-1
T3 sequence (P23944 1-561): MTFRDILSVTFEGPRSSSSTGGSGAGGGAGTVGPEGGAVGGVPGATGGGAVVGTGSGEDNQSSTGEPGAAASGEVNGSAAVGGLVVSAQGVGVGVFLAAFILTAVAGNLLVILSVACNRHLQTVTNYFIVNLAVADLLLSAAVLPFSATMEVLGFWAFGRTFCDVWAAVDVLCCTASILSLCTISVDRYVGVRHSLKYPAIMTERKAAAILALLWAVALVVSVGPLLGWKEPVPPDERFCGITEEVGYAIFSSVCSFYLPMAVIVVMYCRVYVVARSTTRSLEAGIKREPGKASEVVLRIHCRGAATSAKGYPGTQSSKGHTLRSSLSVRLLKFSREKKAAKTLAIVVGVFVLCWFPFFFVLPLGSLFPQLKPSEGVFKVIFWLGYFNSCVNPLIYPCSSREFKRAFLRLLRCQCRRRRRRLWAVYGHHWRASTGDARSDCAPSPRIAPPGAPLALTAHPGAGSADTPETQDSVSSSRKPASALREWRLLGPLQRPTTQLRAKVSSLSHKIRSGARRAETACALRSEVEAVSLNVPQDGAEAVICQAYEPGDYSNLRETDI
The assay can be described thus: [3H]Prazosin competition/saturation binding on COS-1 membranes expressing α1D-AR. Set-up: species or system rodent. To be noted: [3H]Prazosin 200 pM. On the procedure: as §1, §2, §3, §4

Assay [4] deals with T1, α1A-AR. The experiment in a line: Phosphatidylinositol hydrolysis (IP accumulation) assay in COS-1 cells expressing α1A-AR. Format: cell-based, rodent. Particulars: 20 min compound, then 10 µM (-)-norepinephrine 30 min, COS-1 cells; read-out: pIC50, inhibition of norepinephrine induced IP accumulation at α1A-AR (converted). Here is the method: as §1
Accumulation of [^3H] inositol phosphates (IPs) was determined as described previously. Briefly, COS-1 cells were transiently transfected with α1A, α1B and α1D - AR pMT4 plasmids using the Lipofectamine method. 24 h after transfection, cells were seeded into 96 well plates and labelled overnight with 20 µCi ml^−1 [^3H]myo-inositol in inositol free DMEM supplemented with 5% charcoal stripped FBS. Cells were washed twice with inositol free DMEM, and incubated in inositol free DMEM for 2 h at 37°C. Cells were treated for 20 minutes with LiCl (20 mM) and propanolol (20 µM) in the presence or absence of tested compounds. Agonists were then added for 30 min, and the reaction was terminated by addition of 0.4 M formic acid. Cells were lysed by freeze thawing twice and were applied to AG 1-X8 columns. Total IPs were eluted with 1 M ammonium formate in 0.1 M formic acid. 200 µL of eluted sample was diluted with 1 mL reverse osmosis water and 5 mL Ultimaflow scintillation fluid (Perkin Elmer), and were counted in a liquid scintillation counter.
Compounds were administered alone (100 µM) or prior to the addition of 10 µM […], to screen for agonist or antagonist activity respectively.
Figure 2 Inhibition of norepinephrine induced inositol phosphate (IP) accumulation at α1A- AR. α1A-AR transfected cells labelled overnight with [^3H]- myo-inositol were treated with indicated concentrations (300 µM – 0.1 µM) of test compounds, 1 (▪), 2 (▵), and 11 (○), for 20 min. This was followed by a 30 min. stimulation with 10 µM (-)- norepinephrine, following which total IP accumulation was determined. Data was normalized against basal COS-1 cell IP production and expressed as a percentage of the (-)-norepinephrine-stimulated maximal IP response of that receptor subtype. The data represented the mean ± SE of a single experiment (n = 4–5), performed in triplicate.
Figure 3 Inositol phosphate (IP) accumulation in the presence of norepinephrine and compound 8 at the α1A- adrenoceptor (AR). α1A-AR transfected cells were labelled with [^3H]- myo-inositol. Following a 20 min. treatment with lithium chloride (20 mM) and propanolol (20 µM) the cells were stimulated with the indicated concentrations (300 µM − 0.1 µM) of (-) norepinephrine (•) or compound 8 (▪) for 30 min. Total inositol phosphate (IP) accumulation was determined as described under “Materials and Methods”. Data was normalized against basal COS-1 cell IP production and expressed as a percentage of the (-)-norepinephrine-stimulated maximal IP response. The data represents the mean ± SE of three separate experiments (n = 3), performed in duplicate or triplicate.

Assay [5] deals with all α1-AR subtypes. Details: method as in PMID 9249248. Particulars: cited from earlier work.
[6] abbreviates: antilog of mean pKi, Cheng-Prusoff, read-out: Ki α1A-AR.
Where [7] appears, read: antilog of mean pKi, Cheng-Prusoff, read-out: Ki α1B-AR.
Setting [8] is: antilog of mean pKi, Cheng-Prusoff, read-out: Ki α1D-AR.
The mark [9] stands for this setting: pKi = -Log Ki, read-out: pKi α1D-AR (converted).
Setting [10] is: pKi = -Log Ki, read-out: pKi α1A-AR (converted).
The mark [11] stands for this setting: pKi = -Log Ki, read-out: pKi α1B-AR (converted).

Molecules are shown by their SMILES. Where two headings read alike, the source gives them in different places.

As to `COc1cccc(C=CCN2CCN(c3cccc(C(F)(F)F)c3)CC2)c1` [Compound 2], the Ki is 0.49 µM in assay [1] (setting [6]), 4.59 µM in assay [2] (setting [7]), 18.8 µM in assay [3] (setting [8]) and 10.5 µM in assay [3] (setting [9]). Further, the “selectivity for α1A-AR over α1B-AR” value in assay [1] (from binding affinities) is recorded as 10 fold. Moreover, the “selectivity for α1A-AR over α1D-AR” value in assay [1] (from binding affinities) is listed as 38 fold. For the same molecule, the IC50 in assay [4] was 17 µM.

As to `CCN(Cc1ccccc1)CC(O)c1cccc(Cl)c1` (stereo not shown) [Compound 3], the Ki in assay [1] (setting [6]) was 15.1 µM; in assay [1] (setting [10]), 12.6 µM; in assay [2] (setting [7]), 24.4 µM; in assay [2] (setting [11]), 9.55 µM; in assay [3] (setting [8]) it was 8.35 µM; in assay [3] (setting [9]) it was 7.76 µM.

For the molecule `Cc1cc(CN2CCCN(C(=S)Nc3ccccc3C(F)(F)F)CC2)no1` [Compound 4], the Ki in assay [1] (setting [6]), in assay [1] (setting [10]), in assay [2] (setting [7]), in assay [2] (setting [11]), in assay [3] (setting [8]) and in assay [3] (setting [9]) was greater than 100 µM each time.

Consider `Cc1cccc(CN2CCCN(C(=S)NCCN3CCOCC3)CC2)n1` [Compound 5], for which the Ki in assay [1] (setting [6]), in assay [1] (setting [10]), in assay [2] (setting [7]), in assay [2] (setting [11]), in assay [3] (setting [8]) and in assay [3] (setting [9]) was greater than 100 µM throughout.

As to `CCCCC(O)CN1CCC(Cc2ccccc2)CC1` (stereo not shown) [Compound 6], the Ki in assay [1] (setting [6]) is 5.22 µM; in assay [1] (setting [10]), 4.9 µM; in assay [2] (setting [7]), 17 µM; in assay [2] (setting [11]), 13.5 µM; in assay [3] (setting [8]), 5.9 µM; in assay [3] (setting [9]), 5.5 µM.

For the molecule `CN(C)CC(C(=O)c1ccc(Br)cc1)C(Br)c1ccccc1` (stereo not shown) [Compound 7], the Ki in assay [1] (setting [6]) is 20.3 µM; in assay [1] (setting [10]) it was 14.8 µM; in assay [2] (setting [7]), 38.5 µM; in assay [2] (setting [11]), 17 µM; in assay [3] (setting [9]), 9.77 µM.

For `CN(C)c1ccc(CN2CCCN(Cc3ccc(N(C)C)cc3)C2c2cc(Cl)ccc2O)cc1` [Compound 9], the Ki in assay [1] (setting [6]) is 24.5 µM; in assay [1] (setting [10]), 23.4 µM; in assay [2] (setting [7]), greater than 100 µM; in assay [2] (setting [11]), greater than 100 µM; in assay [3] (setting [8]) it was 36.1 µM; in assay [3] (setting [9]), 24.5 µM.

Regarding `Cc1ccc(C(=O)/C(S)=C(\Nc2cccc(Cl)c2)[n+]2ccccc2)cc1` [Compound 10], the Ki in assay [1] (setting [6]), in assay [1] (setting [10]), in assay [2] (setting [7]), in assay [2] (setting [11]), in assay [3] (setting [8]) and in assay [3] (setting [9]) was greater than 100 µM each time.

As to `CCCCN(Cc1ccc(N(CC)CC)cc1)CC(O)c1ccc(Cl)cc1` (stereo not shown) [Compound 12], the Ki in assay [1] (setting [6]) was 45.5 µM; in assay [1] (setting [10]) it was 30.9 µM; in assay [2] (setting [7]) it was greater than 100 µM; in assay [2] (setting [11]) it was greater than 100 µM; in assay [3] (setting [8]) it was 62.4 µM; in assay [3] (setting [9]) it was 32.4 µM.

Turning to `COc1cc2nc(N3CCN(C(=O)c4ccco4)CC3)nc(N)c2cc1OC` [prazosin], the Ki in assay [5] was roughly 0.0001 µM.
